Laboratory results taken from publication PMC9293649 (The Journal of Biological Chemistry, 2022).

T1: DarB (Bacillus subtilis, UniProt O31698)
T1 sequence (O31698 1-147): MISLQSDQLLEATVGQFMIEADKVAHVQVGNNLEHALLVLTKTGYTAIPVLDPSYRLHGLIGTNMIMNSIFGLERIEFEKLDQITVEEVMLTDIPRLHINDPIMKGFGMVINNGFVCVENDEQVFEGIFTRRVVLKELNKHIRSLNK


Experiments:
DarB = target: T1, DarB; experiment: ITC and crystal structure; format: binding
crystal structure = target: the molecule itself; experiment: crystal structure

Kd (DarB) [µM] | Molecule | stoichiometry N (crystal structure)
91.1 | Nc1ncnc2c1ncn2[C@@H]1O[C@H](COP(=O)(O)O)[C@@H](O)[C@H]1O [AMP] | 
 | DarB (c-di-AMP receptor protein, CBS domain protein) of Bacillus subtilis, wild type (natural protein) MISLQSDQLLEATVGQFMIEADKVAHVQVGNNLEHALLVLTKTGYTAIPVLDPSYRLHGLIGTNMIMNSIFGLERIEFEKLDQITVEEVMLTDIPRLHINDPIMKGFGMVINNGFVCVENDEQVFEGIFTRRVVLKELNKHIRSLNK | 2
